Among the data in paper PMC2768106, “Effects of VEGFR-3 phosphorylation inhibitor on lymph node metastasis in an orthotopic diffuse-type gastric carcinoma model” (British Journal of Cancer, 2009) are IC50 values, retold here.

Structures are written as SMILES.

In this experiment the target is T1, VEGFR-3 (vascular endothelial growth factor receptor-3, Flt-4) (Homo sapiens, UniProt P35916).
T1 construct: gene FLT4
As to the kind of experiment: cell-free kinase (autophosphorylation) assay; also HUVEC cellular VEGFR-3 phosphorylation, IC50 […]. It counts as biochemical.

T1 sequence (P35916 25-1363): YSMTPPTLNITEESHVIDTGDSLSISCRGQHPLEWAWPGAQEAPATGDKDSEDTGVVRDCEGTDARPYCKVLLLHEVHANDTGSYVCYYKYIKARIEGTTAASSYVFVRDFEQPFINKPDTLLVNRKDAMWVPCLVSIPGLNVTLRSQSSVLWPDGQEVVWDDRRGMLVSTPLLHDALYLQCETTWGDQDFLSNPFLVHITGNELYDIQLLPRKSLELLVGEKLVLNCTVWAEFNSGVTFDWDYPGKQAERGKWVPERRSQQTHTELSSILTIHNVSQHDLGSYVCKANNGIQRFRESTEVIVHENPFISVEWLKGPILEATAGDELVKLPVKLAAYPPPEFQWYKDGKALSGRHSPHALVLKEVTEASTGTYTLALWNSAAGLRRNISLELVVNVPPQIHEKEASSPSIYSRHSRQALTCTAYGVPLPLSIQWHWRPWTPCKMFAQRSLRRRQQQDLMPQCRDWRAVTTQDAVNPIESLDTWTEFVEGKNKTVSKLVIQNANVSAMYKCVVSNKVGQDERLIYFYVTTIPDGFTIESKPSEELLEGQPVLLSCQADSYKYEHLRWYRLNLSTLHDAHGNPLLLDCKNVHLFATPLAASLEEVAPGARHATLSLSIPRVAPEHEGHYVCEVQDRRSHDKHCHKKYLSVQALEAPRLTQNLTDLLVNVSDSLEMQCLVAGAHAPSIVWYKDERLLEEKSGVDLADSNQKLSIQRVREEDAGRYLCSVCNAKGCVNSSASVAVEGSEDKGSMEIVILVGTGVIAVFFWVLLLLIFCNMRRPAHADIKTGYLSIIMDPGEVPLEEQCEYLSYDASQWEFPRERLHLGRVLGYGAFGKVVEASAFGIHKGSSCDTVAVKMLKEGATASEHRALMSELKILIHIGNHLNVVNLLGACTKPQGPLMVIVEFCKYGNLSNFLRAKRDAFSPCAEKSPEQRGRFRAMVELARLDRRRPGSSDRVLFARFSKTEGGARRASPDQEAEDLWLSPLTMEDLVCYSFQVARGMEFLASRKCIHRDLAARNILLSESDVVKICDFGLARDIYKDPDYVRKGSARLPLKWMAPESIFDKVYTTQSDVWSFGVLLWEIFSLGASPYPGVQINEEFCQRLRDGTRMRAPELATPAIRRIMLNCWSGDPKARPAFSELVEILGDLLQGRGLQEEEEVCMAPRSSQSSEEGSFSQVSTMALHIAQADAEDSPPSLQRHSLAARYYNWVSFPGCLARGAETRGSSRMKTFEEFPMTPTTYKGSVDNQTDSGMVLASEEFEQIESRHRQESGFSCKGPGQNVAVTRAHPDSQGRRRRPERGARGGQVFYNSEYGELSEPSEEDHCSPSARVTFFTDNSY

Compound `COc1cc2c(Oc3ccc(Nc4ccc(C(C)(C)C)cc4)cc3)ccnc2cc1OCCNCCO` [Ki23057] yielded an IC50 of 4.3 nM.
